Laboratory results as given in US20160310454A1, “LIVER X RECEPTOR AGONISTS IN THE TREATMENT OF EMPHYSEMA” (priority 2013, published 2016).
Counter-ions that a name gives are not always drawn.

Legend:
[1] = system: murine disease models of atherosclerosis; details: mouse, in vivo; cited from earlier work
[2] = system: mouse macrophages (bone marrow derived, ABCA1 fl/fl WT) treated with 5% CSE; assay: Mouse macrophages treated with 5% CSE with or without LXR agonist (RT-PCR, Western blot, zymography); assay type: cell-based; details: bone marrow derived macrophages, 5% CSE, LXR agonist 10 μM
Experimental: To prepare cigarette (CSE), the smoke from one cigarette (1.1 mg of nicotine, 15 mg of tar) was passed through 25 mls of phosphate buffered saline (PBS) (Mercer et al., 2004). The pH of the extracted solution was adjusted to 7.4 and then filtered (Mercer et al., 2004). CSE was added to the media at concentrations up to 5% (vol/vol) (Mercer et al., 2004).
In these experiments both mouse peritoneal and mouse bone marrow derived macrophages (BMdM) were utilized. Mouse peritoneal macrophages were isolated from peritoneal cavities of 3% thioglycolate injected mice on the 5th day from injection. To compare expression of genes in vitro and in vivo peritoneal macrophages were isolated from mice exposed to room air and cigarette smoke. For in vitro analysis cells were seeded on culture plates for 24 h and then treated with CSE. For in vivo analysis cells were collected from peritoneal cavity and mRNA was directly isolated. Mouse BMdMs were obtained from the following mice: ABCA1 fl/fl in a C57/BL6 background. Briefly, mice were first sacrificed by CO2 asphyxiation followed by cervical dislocation. After sacrificing the mouse the legs were amputated and the excess muscle tissue was removed so as to completely expose the femur and tibia, which were cleaned carefully. These samples were left in sterile PBS for the duration of the procedure. The cavity bones were then flushed with 10 ml of PBS using 26G needle. The obtained cells were then counted (usually 100-150 million cells per mouse) and centrifuged for 5 min at 2600 rpm. Hematopoietic cells can be separated by plastic adhesion; therefore the cells were incubated in petri dishes containing DMEM culture media and supplemented with 10% FBS and 1% antibiotics). Non-adherent progenitor cells were then collected after 2 hours of incubation in culture media and then seeded at a concentration of 4 million cells/ml in fresh culture media, supplemented with L-cell conditioned media containing macrophage colony stimulating factor (M-CSF) at a concentration of 20%. Approximately after 7-10 days of plating the cells become fully differentiated into macrophages and were ready for subsequent experiments. After treatment the culture supernatants, proteins, and total RNA were collected for analysis. […]
Total RNA was extracted from specimens of lung tissue 0.3 cm^3 in size with the use of the RNeasy kit (Qiagen, Germantown, Md.) (Goldklang et al., 2012). The RNA was then further processed to obtain cDNA, which was used for Real Time (RT) PCR analysis. TaqMan gene expression assays (Applied Biosystems, Carlsbad, Calif.) were performed to assess gene-transcript levels with the use of an ABI Prism 7900HT Sequence Detection System (Applera, Foster City, Calif.) (Goldklang et al., 2012). The following primers were used to check the respective gene expression: ABCA1 (Hs01059118_m1), ABCG1 (Hs00245154_m1), MMP-9 (Mm00442991_m1), IL-1β (Mm00434227_g1), TNF-α (Mm00443260_g1) and GAPDH (4352932E) from TaqMan Gene Expression Assays, Applied Biosystems, CA. β-actin was used as a control since it is a housekeeping gene.
The lungs of mice (-10 mg) were homogenized in 1 ml of Radioimmunoprecipitation assay (RIPA) buffer, and centrifuged at 14,000 g for 10 min. The protein concentration of each sample was measured using a Bradford reagent. The required amount of each sample was then used for western blot analysis, so that the concentration was equal for all samples. Proteins were first separated on the basis of molecular weight via sodium dodecyl sulphate polyacrylamide gel electrophoresis (SDS-PAGE). The same gel was then transferred onto a nitro cellulose membrane with the help of electric current (or electroblotting) that transfers the protein from polyacrylamide gel to the membrane. This membrane was then incubated in the solution containing primary antibodies, specific for the proteins of interest, ABCA1 and ABCG1, followed by the use of a secondary antibody that allowed the detection of protein by chemiluminescent. […]

alveolar macrophages = details: in vitro; cited from earlier work

SMILES: CON(C)C(=O)CC[C@@H](C)[C@H]1CC[C@H]2[C@@H]3C[C@H](O)[C@@H]4C[C@H](O)CC[C@]4(C)[C@H]3CC[C@]12C [hypocholamide]
- cholesterol level in serum and liver [1]: lowers
- development of atherosclerosis [1]: inhibits

SMILES: O=C(O)Cc1cccc(OCCCN(Cc2cccc(C(F)(F)F)c2Cl)CC(c2ccccc2)c2ccccc2)c1 [GW3965, 3-[3-[N-(2-Chloro-3-trifluoromethylbenzyl)-(2,2-diphenylethyl)amino]propyloxy]phenylacetic acid hydrochloride]
- MMP9 expression (mRNA) after smoke exposure [2]: able to block
- CXC10, CCL5, and IL-10 production (alveolar macrophages): anti-inflammatory effects
- production of TNFα, IL-1β, or CXCL8 (alveolar macrophages): did not significantly suppress
- cholesterol level in serum and liver [1]: lowers
- development of atherosclerosis [1]: inhibits
